Data from patent US12162840B2, “Herbicidal compositions” (SYNGENTA PARTICIPATIONS AG, priority 2018, dated 2024).

System: warm season plant species
Assay: B2 Post-emergence efficacy Test 2, warm season plant species
Format: in vivo
Conditions: 15 days after application, 0-100 scale, 0=no damage, 100=total kill; for Herbicidal activity, ABUTH: Abutilon theophrasti; for Herbicidal activity, AMARE: Amaranthus retroflexus; for Herbicidal activity, BIDPI: Bidens pilosa; for Herbicidal activity, BRAPL: Brachiaria plantaginea; for Herbicidal activity, DIGSA: Digitaria sanguinalis; for Herbicidal activity, ECHCG: Echinochloa crus galli; for Herbicidal activity, ELEIN: Eleisine indica; for Herbicidal activity, EPHHL: Euphorbia hetrophylla; for Herbicidal activity, GLXMA: Glycine max; for Herbicidal activity, IPOHE: Ipomoea hederacea; for Herbicidal activity, ORYSA: Orysa sativa; for Herbicidal activity, PANMI: Panicum miliaceum; for Herbicidal activity, SETFA: Setaria faberi; for Herbicidal activity, SIDSP: Sida spinosa; for Herbicidal activity, SORVU: Sorghum bicolour; for Herbicidal activity, XANST: Xanthium strumarium; for Herbicidal activity, ZEAMX: Zea mays
Experimental: Seeds of a variety of test species (see Table B1) were sown in standard soil in pots. After cultivation for 12 days (post-emergence) under controlled conditions in a glasshouse (at 24/18° C. or 20/16° C., at day/night; 16 hours light; 65% humidity), the plants were sprayed with an aqueous spray solution derived from the formulation of the technical active ingredient dissolved in IF50 (see Table B2 for composition) and adjuvant (Genapol XO80) was added to the spray solution at a rate of 0.2% v/v. [table] [table] After application, the test plants were grown in a glasshouse under controlled conditions (as above) and watered twice daily. Herbicidal activity was evaluated 15 days after application on a 0-100 scale. The results, where 0=no damage to test plant and 100=total kill of test plant are shown below in Tables 6 to 9.

## Cc1nn(C)c(=O)c(-c2c(F)ccc(Cl)c2CCc2ccc(F)cc2)c1O [Compound 1.048]
15 g/Ha
  Herbicidal activity, ABUTH: 60
  Herbicidal activity, AMARE: 60
  Herbicidal activity, BIDPI: 70
  Herbicidal activity, BRAPL: 20
  Herbicidal activity, DIGSA: 0
  Herbicidal activity, ECHCG: 60
  Herbicidal activity, ELEIN: 0
  Herbicidal activity, EPHHL: 50
  Herbicidal activity, GLXMA: 70
  Herbicidal activity, IPOHE: 70
  Herbicidal activity, ORYSA: 0
  Herbicidal activity, PANMI: 0
  Herbicidal activity, SETFA: 0
  Herbicidal activity, SIDSP: 80
  Herbicidal activity, SORVU: 0
  Herbicidal activity, ZEAMX: 0
30 g/Ha
  Herbicidal activity, ABUTH: 80
  Herbicidal activity, AMARE: 80
  Herbicidal activity, BIDPI: 70
  Herbicidal activity, BRAPL: 60
  Herbicidal activity, DIGSA: 10
  Herbicidal activity, ECHCG: 80
  Herbicidal activity, ELEIN: 50
  Herbicidal activity, EPHHL: 70
  Herbicidal activity, GLXMA: 80
  Herbicidal activity, IPOHE: 80
  Herbicidal activity, ORYSA: 0
  Herbicidal activity, PANMI: 20
  Herbicidal activity, SETFA: 40
  Herbicidal activity, SIDSP: 80
  Herbicidal activity, SORVU: 30
  Herbicidal activity, ZEAMX: 10
60 g/Ha
  Herbicidal activity, ABUTH: 90
  Herbicidal activity, AMARE: 90
  Herbicidal activity, BIDPI: 70
  Herbicidal activity, BRAPL: 80
  Herbicidal activity, DIGSA: 20
  Herbicidal activity, ECHCG: 80
  Herbicidal activity, ELEIN: 60
  Herbicidal activity, EPHHL: 90
  Herbicidal activity, GLXMA: 90
  Herbicidal activity, IPOHE: 100
  Herbicidal activity, ORYSA: 0
  Herbicidal activity, PANMI: 30
  Herbicidal activity, SETFA: 40
  Herbicidal activity, SIDSP: 80
  Herbicidal activity, SORVU: 70
  Herbicidal activity, XANST: 90
  Herbicidal activity, ZEAMX: 50
125 g/Ha
  Herbicidal activity, ABUTH: 90
  Herbicidal activity, AMARE: 90
  Herbicidal activity, BIDPI: 70
  Herbicidal activity, BRAPL: 80
  Herbicidal activity, DIGSA: 20
  Herbicidal activity, ECHCG: 90
  Herbicidal activity, ELEIN: 60
  Herbicidal activity, EPHHL: 90
  Herbicidal activity, GLXMA: 90
  Herbicidal activity, IPOHE: 100
  Herbicidal activity, ORYSA: 0
  Herbicidal activity, PANMI: 80
  Herbicidal activity, SETFA: 70
  Herbicidal activity, SIDSP: 90
  Herbicidal activity, SORVU: 70
  Herbicidal activity, XANST: 90
  Herbicidal activity, ZEAMX: 50
250 g/Ha
  Herbicidal activity, ABUTH: 90
  Herbicidal activity, AMARE: 100
  Herbicidal activity, BIDPI: 100
  Herbicidal activity, BRAPL: 90
  Herbicidal activity, DIGSA: 50
  Herbicidal activity, ECHCG: 90
  Herbicidal activity, ELEIN: 80
  Herbicidal activity, EPHHL: 100
  Herbicidal activity, GLXMA: 90
  Herbicidal activity, IPOHE: 100
  Herbicidal activity, ORYSA: 10
  Herbicidal activity, PANMI: 100
  Herbicidal activity, SETFA: 80
  Herbicidal activity, SIDSP: 90
  Herbicidal activity, SORVU: 80
  Herbicidal activity, XANST: 90
  Herbicidal activity, ZEAMX: 70
500 g/Ha
  Herbicidal activity, ABUTH: 100
  Herbicidal activity, AMARE: 100
  Herbicidal activity, BIDPI: 100
  Herbicidal activity, BRAPL: 100
  Herbicidal activity, DIGSA: 70
  Herbicidal activity, ECHCG: 100
  Herbicidal activity, ELEIN: 80
  Herbicidal activity, EPHHL: 100
  Herbicidal activity, GLXMA: 100
  Herbicidal activity, IPOHE: 100
  Herbicidal activity, ORYSA: 30
  Herbicidal activity, PANMI: 100
  Herbicidal activity, SETFA: 100
  Herbicidal activity, SIDSP: 90
  Herbicidal activity, SORVU: 90
  Herbicidal activity, XANST: 100
  Herbicidal activity, ZEAMX: 100
